For test [1], the target named is p-p38 MAPK (Mus musculus (Mouse), UniProt P47811). Briefly: p38 MAPK protein inhibitory ability in normal brain cells (p-p38 immunoblot, primary neurons). Type of test: cell-based, ICR mice. An excerpt:
Evaluation of p38 MAPK protein inhibitory ability in normal brain cells
In order to identify inhibition of p-p38 MAPK in normal cells rather than cancer cells, the inhibition of p38 MAPK was identified by inducing inflammation after treating neuron cells obtained from cerebrum of ICR mice with each compound. In short, neurons were collected from the cerebrum of the embryos of ICR mice 17-18 days after gestation and cultured for 7 days in a neurobasal medium supplemented with 2% B27 supplements, 2 mM glutamine, and penicillin/streptomycin (100 U/ml). Primary neurons were treated with 1 μM of Compounds 4 and 6 according to the present disclosure in a culture dish respectively and cultured for 24 hours in a CO2 incubator, and then treated with 1000 ng/ml of LPS, followed by additional culture for 6 hours in a CO2 incubator.
After the cell culture was terminated according to the experimental conditions, washing was performed with cold phosphate buffered saline (PBS). The cells were then collected and centrifuged at 1200 rpm for 3 minutes. The cells in the sediment were lysed with 2X sample buffer (1M Tris-HCl pH 6.8, 50% glycerol, 10% SDS, 2-mercaptoethanol, 1% bromophenol blue) and boiled at 100° C. for 10 minutes. The prepared protein samples were subjected to sodium dodecyl sulfate poly acrylamide gel electrophoresis and transferred to PVDF membrane (Millipore). For a specific binding reaction between the protein in the PVDF membrane and antibody, blocking was performed in a 5% bovine serum albumin (BSA, RMbio) solution. Subsequently, the BSA solution was discarded, and the membrane was washed with PBS-T (0.5% Tween 20 in PBS). The binding reaction between the protein in the membrane and antibody was performed overnight at 4° C. and washed again with PBS-T. Finally, a secondary antibody (Cell signaling Technology) conjugated with horse radish peroxidase (HRP) was diluted in PBS-T and reacted at room temperature for 2 hours. Luminata Forte HRP substrate (Millipore) was used to determine the amount of protein in the membrane, the results of which are shown in Table 9 below.

Test [2] deals with p-p38 MAPK (Homo sapiens (Human), UniProt Q16539). Briefly: p38 MAPK protein inhibitory ability in brain-derived cells (p-p38 immunoblot, SH-SY5Y). Type of test: cell-based. As to the method: Evaluation of p38 MAPK protein inhibitory ability in brain-derived cells
In order to identify inhibition of p-p38 MAPK in brain cells, the inhibition of p38 MAPK was identified by inducing inflammation after treating each compound to SH-SYSY cells obtained by converting human neurons into cancerous cells. In short, SH-SY5Y cells were cultured in Minimum essential medium/Eagle's balanced salts supplemented with 10% fetal bovine serum and penicillin/streptomycin (100 U/ml). SH-SY5Y cells were treated with 1 μM of Compounds 4 and 6 according to the present disclosure in a culture dish respectively and cultured for 24 hours in a CO2 incubator, and then treated with 1000 ng/ml of LPS, followed by additional culture for 6 hours in a CO2 incubator.
After cell culture was terminated according to the experimental conditions, cells were washed with cold phosphate buffered saline (PBS). The cells were then collected and centrifuged at 1200 rpm for 3 minutes. The cells in the sediment were lysed with 2X sample buffer (1M Tris-HCl pH 6.8, 50% glycerol, 10% SDS, 2-mercaptoethanol, 1% bromophenol blue) and boiled at 100° C. for 10 minutes. The prepared protein samples were subjected to sodium dodecyl sulfate poly acrylamide gel electrophoresis and transferred to PVDF membrane (Millipore). For a specific binding reaction between the protein in the PVDF membrane and antibody, blocking was performed in a 5% bovine serum albumin (BSA, RMbio) solution. Subsequently, the BSA solution was discarded, and the membrane was washed with PBS-T (0.5% Tween 20 in PBS). The binding reaction of the protein in the membrane and antibody was performed overnight at 4° C. and washed again with PBS-T. Finally, a secondary antibody (Cell signaling Technology) conjugated with horse radish peroxidase (HRP) was diluted in PBS-T and reacted at room temperature for 2 hours. Luminata Forte HRP substrate (Millipore) was used to determine the amount of protein in the membrane, the results of which are shown in Table 8 below.

The subject of another test is TNFα. As to the kind of experiment: TNFα inhibitory ability by cellular inflammatory response (supernatant, antibody-coated plate), Raw264.7 cells. It is filed as cell-based. To be noted: Mus musculus, 1 μM compound 24 hours, then 100 ng/ml LPS 24 hours, supernatant protein. On the procedure:
Evaluation of TNFα inhibitory ability by cellular inflammatory response
In order to identify inhibition of p-p38 MAPK, inhibition of p38 MAPK was identified after treating each compound to Raw264.7 cells obtained by converting macrophages that induces inflammation according to p-p38 MAPK activity cancerous cells. Briefly, Raw264.7 cells were cultured in Dulbecco's modified Eagle Medium supplemented with 10% fetal bovine serum and penicillin/streptomycin (100 U/ml). Raw264.7 cells were treated with 1 μM of Compounds 1 to 5 according to the present disclosure in a culture dish respectively and cultured for 24 hours in a CO2 incubator, and then treated with 100 ng/ml of LPS, followed by additional culture for 24 hours in a CO2 incubator.
After the cell culture was completed according to the experimental conditions, the supernatant was obtained and centrifuged for 3 minutes at 1200 rpm. The centrifuged supernatant was dispensed into an antibody-coated plate, reacted at room temperature for 2 hours, and washed with PBS-T (0.5% tween 20 in PBS). After dispensing detection antibody including HRP, a reaction was performed at room temperature for 1 hour, and the amount of protein was checked at a wavelength of 450 nm, the results of which are shown in Table 7 below.

The subject of a further test is IL-6 mRNA. Briefly: Cytokine mRNA expression inhibitory ability, IL-6, LPS-treated BV2 cells. To be noted: 1 μM compound 24 hours, then 1000 ng/ml LPS 24 hours. It is filed as cell-based. As to the method:
Evaluation of cytokine mRNA expression inhibitory ability by inflammatory response
In order to identify inhibition of p-p38 MAPK, the inhibition of p38 MAPK was identified by treating each compound to BV2 cells obtained by converting microglia that induces inflammation according to p-p38 MAPK activity in the brain into cancerous cells. Briefly, BV2 cells were cultured in Dulbecco's modified Eagle Medium supplemented with 10% fetal bovine serum and penicillin/streptomycin (100 U/ml). BV2 cells were treated with 1 μM of Compounds 4 to 6 according to the present disclosure in a culture dish respectively and cultured for 24 hours in a CO2 incubator, and then treated with 1000 ng/ml of LPS, followed by additional culture for 24 hours in a CO2 incubator.
After the cell culture was completed according to the experimental conditions, washing was performed with cold phosphate buffered saline (PBS). The cells were then collected and centrifuged at 1200 rpm for 3 minutes. RNA was extracted according to the method provided in the Hybrid-R total RNA purification kit (GeneAllR), 305-101). After measuring the concentration and purity of RNA using Nanodrop, cDNA was synthesized according to the method provided in TOPscript RT DryMIX (Enzynomics, RT200). […]

Sequence of p-p38 MAPK (Mus musculus (Mouse), UniProt P47811) (P47811 whole entry): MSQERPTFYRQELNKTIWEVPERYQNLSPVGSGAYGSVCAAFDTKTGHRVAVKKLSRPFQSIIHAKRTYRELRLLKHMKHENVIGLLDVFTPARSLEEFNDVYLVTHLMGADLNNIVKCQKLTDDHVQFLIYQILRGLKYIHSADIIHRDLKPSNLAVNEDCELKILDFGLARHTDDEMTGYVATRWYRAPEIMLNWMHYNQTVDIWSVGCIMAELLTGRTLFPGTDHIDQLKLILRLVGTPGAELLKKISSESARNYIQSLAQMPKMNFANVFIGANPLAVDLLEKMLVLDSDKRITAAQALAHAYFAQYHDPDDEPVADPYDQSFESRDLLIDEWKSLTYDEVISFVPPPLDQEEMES
Sequence of p-p38 MAPK (Homo sapiens (Human), UniProt Q16539) (Q16539 whole entry): as the sequence (P47811 whole entry) above, with H48L, A263T counted along it

In the case of `Cc1c(F)cc(C(=O)NC2CC2)cc1-c1ccc(C(=O)c2c[nH]c3ccccc23)cn1` [Compound 4, 3-(5-(1H-indole-3-carbonyl)pyridin-2-yl)-N-cyclopropyl-5-fluoro-4-methylbenzamide], the “p38 phosphorylation due to inflammation in normal cells (result in words)” value at p-p38 MAPK [1] (primary mouse neurons, 1 μM) was “effectively inhibited p38 phosphorylation”. For the same compound, the inhibition at 1 µM came to 55.8% at p-p38 MAPK [1] (primary neurons from cerebrum of ICR mouse embryos, 1 μM compound 24 hours, then 1000 ng/ml LPS 6 hours); 74.6% on p-p38 MAPK [2] (1 μM compound 24 hours, then 1000 ng/ml LPS 6 hours); 76.6% in the test on TNFα. The “p38 phosphorylation in cells derived from human (result in words)” value at p-p38 MAPK [2] (1 μM) was “effectively inhibited p38 phosphorylation”. For the same compound, in the test with IL-6 mRNA, the “IL-6 mRNA inhibition” value came out at 52.8%.

The values above are taken from patent US20240270713A1, “NOVEL COMPOUND EXHIBITING THERAPEUTIC EFFECT ON INFLAMMATORY DISEASE AS P38 MAP KINASE INHIBITOR” (PRAZERTHERAPEUTICS INC., priority 2021, published 2024).
